Data published in PubChem BioAssay AID240 (DTP/NCI, 2004).
“And” between values parts separate entries of the source, which are not always exact repeats. Equal entries are not always repeated. Inconclusive results and toxic doses are left out. Starred links: 1 amine or outer side, 2 acyl side, 3 side chain; linkers in the order of their positions; H or OH if unused. Positions of bridges follow the written chain, without caps; N, C: chain ends. Non-standard residues stand in square brackets, D forms with d. Residues, ends and D or L forms follow the SMILES beside them. Chains are numbered I, II in the order given. Actinocin(9to1) = Cc1c2oc3c(C)ccc(C(=O)[*:1])c3nc-2c(C(=O)[*:2])c(N)c1=O; aThr = C[C@H](O)[C@H](N)C(=O)O; NMeV = CN[C@H](C(=O)O)C(C)C; Sar = CNCC(=O)O

System: Lymphoma 4 ip in BDF1 mice, median survival
Test: NCI In Vivo Anticancer Drug Screen. Data for tumor model Lymphoma 4 (intraperitoneal) in B6D2F1 (BDF1) mice
Settings: endpoint: median survival time, higher = longer survival
Procedure: The antitumor activity of compounds was measured in mice bearing transplantable tumors. Survival or tumor size were measured and the results are expressed as the measurement made in the treated group (T) divided by the measurement made in the vehicle treated control group (C). The tumor model used in this assay is Lymphoma 4 (intraperitoneal) in B6D2F1 (BDF1) mice

[1] = dose: 10.0 mg/kg/injection, schedule: Q01DX010 (ip), vehicle: saline
[2] = dose: 18.8 mg/kg/injection, schedule: Q01DX010 (ip), vehicle: saline
[3] = dose: 37.5 mg/kg/injection, schedule: Q01DX010 (ip), vehicle: saline
[4] = dose: 75.0 mg/kg/injection, schedule: Q01DX010 (ip), vehicle: saline
[5] = dose: 8.0 mg/kg/injection, schedule: Q01DX010 (ip), vehicle: saline
[6] = dose: 16.0 mg/kg/injection, schedule: Q01DX010 (ip), vehicle: saline
[7] = dose: 32.0 mg/kg/injection, schedule: Q01DX010 (ip), vehicle: saline

**Q.** For `Cc1c2oc3c(C)ccc(C(=O)N[C@@H]4C(=O)N[C@H](C(C)C)C(=O)N5CCC[C@H]5C(=O)N(C)CC(=O)N(C)[C@@H](C(C)C)C(=O)O[C@H]4C)c3nc-2c(C(=O)N[C@@H]2C(=O)N[C@H](C(C)C)C(=O)N3CCC[C@H]3C(=O)N(C)CC(=O)N(C)[C@@H](C(C)C)C(=O)O[C@H]2C)c(N)c1=O` (I: [aThr][dV]P[Sar][NMeV] / II: [aThr][dV]P[Sar][NMeV]; ester I:1-I:C, II:1-II:C; linker I:N-II:N via Actinocin(9to1)), which T/C (dose: 12.5 micrograms/kg/injection, schedule: Q01DX010 (ip), vehicle: other) is on record?
**A.** 114 % of control and 123 % of control

**Q.** And the T/C (dose: 25.0 micrograms/kg/injection, schedule: Q01DX010 (ip), vehicle: other)?
**A.** 123 % of control

**Q.** What about the T/C (dose: 50.0 micrograms/kg/injection, schedule: Q01DX010 (ip), vehicle: other) of the same molecule?
**A.** 150 % of control and 179 % of control

**Q.** What about the T/C (dose: 100.0 micrograms/kg/injection, schedule: Q01DX010 (ip), vehicle: other) of the same molecule?
**A.** 194 % of control

**Q.** Which T/C (dose: 100.0 mg/kg/injection, schedule: Q01DX010 (ip), vehicle: saline) does the source give for `CS(=O)(=O)OCCC(=O)N1CCN(C(=O)CCOS(C)(=O)=O)CC1` here?
**A.** 237 % of control

**Q.** And the T/C (dose: 200.0 mg/kg/injection, schedule: Q01DX010 (ip), vehicle: saline)?
**A.** 303 % of control

**Q.** With `COc1cc(-c2ccc(Nc3ccccc3C(=O)O)c(OC)c2)ccc1N` as the molecule, how does the T/C [1] read?
**A.** 119 % of control

**Q.** How did the T/C (dose: 1.25 mg/kg/injection, schedule: Q01DX010 (ip), vehicle: saline) turn out when `CC1CN1P(=S)(N1CC1C)N1CC1C` (configuration not stated) was run?
**A.** 103 % of control

**Q.** What about the T/C (dose: 2.5 mg/kg/injection, schedule: Q01DX010 (ip), vehicle: saline) of the same molecule?
**A.** 93 % of control and 115 % of control

**Q.** What about the T/C (dose: 5.0 mg/kg/injection, schedule: Q01DX010 (ip), vehicle: saline) of the same molecule?
**A.** 100 % of control and 111 % of control

**Q.** What about the T/C [1] of the same molecule?
**A.** 111 % of control and 120 % of control

**Q.** And the T/C (dose: 20.0 mg/kg/injection, schedule: Q01DX010 (ip), vehicle: saline)?
**A.** 115 % of control

**Q.** For `Nc1nc2n[nH]nc2c(=O)[nH]1`, which T/C (dose: 25.0 mg/kg/injection, schedule: Q01DX010 (ip), vehicle: alkali diluted with saline) is on record?
**A.** 106 % of control

**Q.** And the T/C (dose: 50.0 mg/kg/injection, schedule: Q01DX010 (ip), vehicle: alkali diluted with saline)?
**A.** 120 % of control

**Q.** And the T/C (dose: 200.0 mg/kg/injection, schedule: Q01DX010 (ip), vehicle: alkali diluted with saline)?
**A.** 90 % of control

**Q.** How did the T/C [2] turn out when `CN(C)c1nc(N(C)C)nc(N(C)C)n1` was run?
**A.** 96 % of control and 100 % of control

**Q.** And the T/C [3]?
**A.** 100 % of control

**Q.** What about the T/C [4] of the same molecule?
**A.** 100 % of control

**Q.** What about the T/C (dose: 150.0 mg/kg/injection, schedule: Q01DX010 (ip), vehicle: saline) of the same molecule?
**A.** 100 % of control and 103 % of control

**Q.** `Nc1nc(N)c2nc(CNc3ccc(C(=O)NC(CCC(=O)O)C(=O)O)cc3)cnc2n1` (configuration not stated) was tested. Which T/C (dose: 0.05 mg/kg/injection, schedule: Q01DX010 (ip), vehicle: other) did it give?
**A.** 96 % of control and 110 % of control

**Q.** And the T/C (dose: 0.1 mg/kg/injection, schedule: Q01DX010 (ip), vehicle: other)?
**A.** 110 % of control and 114 % of control

**Q.** What about the T/C (dose: 0.2 mg/kg/injection, schedule: Q01DX010 (ip), vehicle: other) of the same molecule?
**A.** 116 % of control and 117 % of control

**Q.** How did the T/C (dose: 12.5 mg/kg/injection, schedule: Q01DX010 (ip), vehicle: saline) turn out when `COc1cc(-c2ccc(Nc3ccccc3C(=O)O)c(OC)c2)ccc1Nc1ccccc1C(=O)O` was run?
**A.** 107 % of control

**Q.** And the T/C (dose: 25.0 mg/kg/injection, schedule: Q01DX010 (ip), vehicle: saline)?
**A.** 115 % of control

**Q.** What about the T/C (dose: 50.0 mg/kg/injection, schedule: Q01DX010 (ip), vehicle: saline) of the same molecule?
**A.** 123 % of control

**Q.** Which results are given for `CS(=O)(=O)OCCCl`?
**A.** T/C (dose: 9.4 mg/kg/injection, schedule: Q01DX010 (ip), vehicle: saline): 100 % of control; T/C [2]: 100 % of control and 103 % of control; T/C [3]: 100 % of control and 106 % of control; T/C [4]: 96 % of control and 103 % of control

**Q.** With `O=C(Nc1ccc(C2=NCCN2)cc1)c1ccc(C(=O)Nc2ccc(C3=NCCN3)cc2)c([N+](=O)[O-])c1` as the molecule, how does the T/C (dose: 6.0 mg/kg/injection, schedule: Q01DX010 (ip), vehicle: saline) read?
**A.** 157 % of control

**Q.** And the T/C [5]?
**A.** 189 % of control and 278 % of control

**Q.** And the T/C (dose: 12.0 mg/kg/injection, schedule: Q01DX010 (ip), vehicle: saline)?
**A.** 185 % of control and 300 % of control

**Q.** And the T/C (dose: 18.0 mg/kg/injection, schedule: Q01DX010 (ip), vehicle: saline)?
**A.** 96 % of control and 121 % of control

**Q.** How did the T/C (dose: 12.5 mg/kg/injection, schedule: Q01DX010 (sc), vehicle: steriod suspending solution) turn out when `C[C@]12C=CC(=O)C=C1CC[C@@H]1[C@@H]2[C@@H](O)C[C@@]2(C)[C@H]1CC[C@]2(O)C(=O)CO` was run?
**A.** 123 % of control

**Q.** And the T/C (dose: 25.0 mg/kg/injection, schedule: Q01DX010 (sc), vehicle: steriod suspending solution)?
**A.** 116 % of control

**Q.** What about the T/C (dose: 50.0 mg/kg/injection, schedule: Q01DX010 (sc), vehicle: steriod suspending solution) of the same molecule?
**A.** 110 % of control

**Q.** What about the T/C (dose: 100.0 mg/kg/injection, schedule: Q01DX010 (sc), vehicle: steriod suspending solution) of the same molecule?
**A.** 116 % of control

**Q.** Which T/C (dose: 0.25 mg/kg/injection, schedule: Q01DX010 (ip), vehicle: saline) does the source give for `Nc1nc(=S)c2ncn(C3OC(CO)C(O)C3O)c2[nH]1` (configuration not stated) here?
**A.** 100 % of control

**Q.** What about the T/C (dose: 0.5 mg/kg/injection, schedule: Q01DX010 (ip), vehicle: saline) of the same molecule?
**A.** 106 % of control

**Q.** What about the T/C (dose: 1.0 mg/kg/injection, schedule: Q01DX010 (ip), vehicle: saline) of the same molecule?
**A.** 102 % of control and 115 % of control

**Q.** And the T/C (dose: 2.0 mg/kg/injection, schedule: Q01DX010 (ip), vehicle: saline)?
**A.** 100 % of control

**Q.** `CCn1cnc2c(=S)nc[nH]c21` was tested. Which T/C (dose: 4.0 mg/kg/injection, schedule: Q01DX010 (ip), vehicle: saline) did it give?
**A.** 96 % of control

**Q.** And the T/C [5]?
**A.** 100 % of control

**Q.** And the T/C (dose: 15.6 mg/kg/injection, schedule: Q01DX010 (ip), vehicle: saline)?
**A.** 93 % of control and 106 % of control

**Q.** And the T/C [6]?
**A.** 96 % of control

**Q.** And the T/C (dose: 31.3 mg/kg/injection, schedule: Q01DX010 (ip), vehicle: saline)?
**A.** 103 % of control

**Q.** What about the T/C [7] of the same molecule?
**A.** 96 % of control and 100 % of control

**Q.** And the T/C (dose: 62.5 mg/kg/injection, schedule: Q01DX010 (ip), vehicle: saline)?
**A.** 100 % of control

**Q.** How did the T/C [5] turn out when `O=C(Nc1ccc(C2=NCCN2)cc1)c1cccc(C(=O)Nc2ccc(C3=NCCN3)cc2)c1` was run?
**A.** 113 % of control and 121 % of control

**Q.** And the T/C [6]?
**A.** 120 % of control

**Q.** What about the T/C [7] of the same molecule?
**A.** 170 % of control and 189 % of control

**Q.** And the T/C (dose: 64.0 mg/kg/injection, schedule: Q01DX010 (ip), vehicle: saline)?
**A.** 235 % of control
